In ChEMBL document CHEMBL5608191, “Structure-based discovery of novel piperidine-biphenyl-DAPY derivatives as non-nucleoside reverse transcriptase inhibitors featuring improved potency, safety, and selectivity: From piperazine-biphenyl-DAPYs to piperidine-biphenyl-DAPYs” (Eur J Med Chem, 2024):

Columns and labels:
[1] = tested on: Human immunodeficiency virus 1; experiment: Antiviral activity against HIV-1 harboring RT Y188L mutant infected in human MT4 cells assessed as protection against virus-induced cytopathic effect incubated for 5 days by MTT assay; format: functional, organism-based; conditions: Human immunodeficiency virus 1, MT4, 120 h
[2] = tested on: Human immunodeficiency virus 1; experiment: Antiviral activity against HIV-1 harboring RT Y181C mutant infected in human MT4 cells assessed as protection against virus-induced cytopathic effect incubated for 5 days by MTT assay; format: functional, organism-based; conditions: Human immunodeficiency virus 1, MT4, 120 h
[3] = tested on: Human immunodeficiency virus 1; experiment: Antiviral activity against HIV-1 harboring RT K103N mutant infected in human MT4 cells assessed as protection against virus-induced cytopathic effect incubated for 5 days by MTT assay; format: functional, organism-based; conditions: Human immunodeficiency virus 1, MT4, 120 h
[4] = tested on: Human immunodeficiency virus 1; experiment: Antiviral activity against HIV-1 harboring RT L100I mutant infected in human MT4 cells assessed as protection against virus-induced cytopathic effect incubated for 5 days by MTT assay; format: functional, organism-based; conditions: Human immunodeficiency virus 1, MT4, 120 h
[5] = target: Human immunodeficiency virus type 1 reverse transcriptase (Human immunodeficiency virus 1, UniProt Q72547); experiment: Inhibition of recombinant wild-type HIV-1 reverse transcriptase incubated for 40 mins by fluorescence based assay
[6] = Cytotoxicity against human MT4 cells assessed as reduction in cell viability incubated for 5 days by MTT assay; format: toxicity, cell-based; conditions: time 5 day
[7] = tested on: Human immunodeficiency virus 1; experiment: Antiviral activity against HIV-1 harboring RT E138K mutant infected in human MT4 cells assessed as protection against virus-induced cytopathic effect incubated for 5 days by MTT assay; format: functional, organism-based; conditions: Human immunodeficiency virus 1, MT4, 120 h
[8] = tested on: Human immunodeficiency virus 1; experiment: Antiviral activity against wild-type HIV-1 IIIB infected in human MT4 cells assessed as protection against virus-induced cytopathic effect incubated for 5 days by MTT assay; format: functional, organism-based; conditions: Human immunodeficiency virus 1, IIIB, MT4, 120 h
[9] = Selectivity index, ratio of CC50 for human MT4 cells to EC50 for wild-type HIV-1 IIIB infected in human MT4 cells; format: toxicity, cell-based; conditions: read-out: Ratio CC50/EC50
[10] = Solubility of compound in phosphate buffer at pH 7 by HPLC analysis; format: physicochemical
[11] = Solubility of compound in phosphate buffer at pH 7.4 by HPLC analysis; format: physicochemical
[12] = Solubility of compound in phosphate buffer at pH 2 by HPLC analysis; format: physicochemical
[13] = Solubility of compound in water by HPLC analysis; format: physicochemical

CCOC(=O)c1cnc(NC2CCN(Cc3cccc(C(N)=O)c3)CC2)nc1Oc1c(C)cc(-c2ccc(C#N)cc2)cc1C
EC50 [1]: 342 nM
EC50 [2]: 76 nM
EC50 [3]: 44 nM
EC50 [4]: 66 nM
IC50 [5]: 669 nM
CC50 at 120 h [6]: 11500 nM
EC50 [7]: 68 nM
EC50 [8]: 15 nM
selectivity ratio [9]: 757

CCOC(=O)c1cnc(NC2CCN(Cc3ccc(S(=O)(=O)NC)cc3)CC2)nc1Oc1c(C)cc(-c2ccc(C#N)cc2)cc1C
EC50 [1]: 177 nM
EC50 [2]: 72 nM
EC50 [3]: 26 nM
EC50 [4]: 35 nM
IC50 [5]: 744 nM
CC50 at 120 h [6]: 10900 nM
EC50 [7]: 38 nM
EC50 [8]: 24 nM
selectivity ratio [9]: 460

CCOC(=O)c1cnc(NC2CCN(Cc3ccc(B(O)O)cc3)CC2)nc1Oc1c(C)cc(-c2ccc(C#N)cc2)cc1C
IC50 [5]: 1300 nM
CC50 at 120 h [6]: 20900 nM
EC50 [8]: 48 nM
selectivity ratio [9]: 439

CCOC(=O)c1cnc(NC2CCN(Cc3ccc(CO)cc3)CC2)nc1Oc1c(C)cc(-c2ccc(C#N)cc2)cc1C
IC50 [5]: 514 nM
CC50 at 120 h [6]: 192000 nM
EC50 [8]: 40 nM
selectivity ratio [9]: 4740

Br.CCOC(=O)c1cnc(NC2CCN(Cc3ccc(C(=O)NC)cc3)CC2)nc1Nc1c(C)cc(-c2ccc(C#N)cc2)cc1C
solubility [10]: < 1 µg/mL
solubility [11]: < 1 µg/mL
solubility [12]: 141 µg/mL
solubility [13]: 91.4 µg/mL

CCOC(=O)c1cnc(NC2CCN(Cc3ccc(C(F)(F)F)cc3)CC2)nc1Oc1c(C)cc(-c2ccc(C#N)cc2)cc1C
IC50 [5]: 990 nM
CC50 at 120 h [6]: > 199000 nM
EC50 [8]: 421 nM
selectivity ratio [9]: > 472

CCOC(=O)c1cnc(NC2CCN(Cc3ccccn3)CC2)nc1Oc1c(C)cc(-c2ccc(C#N)cc2)cc1C
EC50 [1]: 313 nM
EC50 [2]: 118 nM
EC50 [3]: 43 nM
EC50 [4]: 128 nM
IC50 [5]: 676 nM
CC50 at 120 h [6]: > 222000 nM
EC50 [7]: 164 nM
EC50 [8]: 18 nM
selectivity ratio [9]: > 12200

CCOC(=O)c1cnc(NC2CCN(Cc3ccc(F)cc3F)CC2)nc1Oc1c(C)cc(-c2ccc(C#N)cc2)cc1C
IC50 [5]: 634 nM
CC50 at 120 h [6]: 176000 nM
EC50 [8]: 54 nM
selectivity ratio [9]: 3280

CCOC(=O)c1cnc(NC2CCN(Cc3ccc([N+](=O)[O-])cc3)CC2)nc1Oc1c(C)cc(-c2ccc(C#N)cc2)cc1C
IC50 [5]: 410 nM
CC50 at 120 h [6]: 164000 nM
EC50 [8]: 37 nM
selectivity ratio [9]: 4390

CCOC(=O)c1cnc(NC2CCN(Cc3ccc(OC(F)(F)F)cc3)CC2)nc1Oc1c(C)cc(-c2ccc(C#N)cc2)cc1C
IC50 [5]: 2040 nM
CC50 at 120 h [6]: 175000 nM
EC50 [8]: 189 nM
selectivity ratio [9]: 923

CCOC(=O)c1cnc(NC2CCN(Cc3ccc(C(=O)NC)cc3)CC2)nc1Oc1c(C)cc(-c2ccc(C#N)cc2)cc1C.Cl
solubility [10]: < 1 µg/mL
solubility [11]: < 1 µg/mL
solubility [12]: 103 µg/mL
solubility [13]: 336 µg/mL

CCOC(=O)c1cnc(NC2CCN(Cc3ccc(C(=O)NC)cc3)CC2)nc1Nc1c(C)cc(-c2ccc(C#N)cc2)cc1C.O=S(=O)(O)O
solubility [10]: < 1 µg/mL
solubility [11]: < 1 µg/mL
solubility [12]: 147 µg/mL
solubility [13]: 134 µg/mL

CCOC(=O)c1cnc(NC2CCN(Cc3ccc(C(N)=O)cc3)CC2)nc1Oc1c(C)cc(-c2ccc(C#N)cc2)cc1C
EC50 [1]: 94 nM
EC50 [2]: 48 nM
EC50 [3]: 17 nM
EC50 [4]: 45 nM
IC50 [5]: 596 nM
CC50 at 120 h [6]: 191000 nM
EC50 [7]: 50 nM
EC50 [8]: 11 nM
selectivity ratio [9]: 17400

O=C1Nc2ccc(Cl)cc2[C@@](C#CC2CC2)(C(F)(F)F)O1 [EFAVIRENZ]
EC50 [2]: 8 nM
EC50 [3]: 77 nM
EC50 [4]: 39 nM
CC50 at 120 h [6]: > 6350 nM
EC50 [7]: 8 nM

Cc1cc(C#N)cc(C)c1Oc1nc(Nc2ccc(C#N)cc2)nc(N)c1Br [ETRAVIRINE]
EC50 [1]: 24 nM
solubility [10]: < 1 µg/mL
CC50 at 120 h [6]: > 4610 nM
solubility [11]: < 1 µg/mL
EC50 [7]: 13 nM

Cc1ccnc2c1NC(=O)c1cccnc1N2C1CC1 [NEVIRAPINE]
EC50 [1]: > 10000 nM
EC50 [4]: 2000 nM
CC50 at 120 h [6]: > 15000 nM
EC50 [7]: 153 nM

Cc1cc(/C=C/C#N)cc(C)c1Nc1ccnc(Nc2ccc(C#N)cc2)n1 [RILPIVIRINE]
solubility [10]: < 1 µg/mL
IC50 [5]: 35 nM
solubility [11]: < 1 µg/mL

Cc1cn([C@H]2C[C@H](N=[N+]=[N-])[C@@H](CO)O2)c(=O)[nH]c1=O [ZIDOVUDINE]
EC50 [1]: 16 nM
EC50 [2]: 21 nM
EC50 [3]: 20 nM
EC50 [4]: 8 nM
CC50 at 120 h [6]: > 7490 nM
EC50 [7]: 39 nM
EC50 [8]: 34 nM
selectivity ratio [9]: > 223
